What was measured:
Assay type in all cases: cell-based
[1] = target: T1, p62 protein (Homo sapiens, UniProt Q13501); assay: Oligomerization activity of p62 protein by immunoblotting; parameters: endogenous in cells; details: HEK293 cell line lysate treated with test compounds for 2 hours at room temperature
Source text: In order to evaluate the oligomerization activity efficacy of p62 protein of the compounds (Examples 1-20), HEK293 cell line, which is human embryonic kidney-derived cell, was collected. As representative compounds of the present compounds, the compounds of Examples 1-20 (Example 1 (ATB10048), Example 2 (ATB10047), Example 3 (ATB10049), Example 4 (ATB10051), Example 5 (ATB10050), Example 6 (ATB10056), Example 7 (ATB10052), Example 8 (ATB10057), Example 9 (ATB10060), Example 10 (ATB10072), Example 11 (ATB10075), Example 12 (ATB10078), Example 13 (ATB10079), Example 14 (ATB10080), Example 15 (ATB10081), Example 16 (ATB10087), Example 17 (ATB10096), Example 18 (ATB10097), Example 19 (ATB10099) and Example 20 (ATB10100)) were selected, and in order to measure the activation and oligomerization of the p62 protein in cells according to the treatment with these selected representative compounds, each cell was dispensed into a 100 phi dish. The cells were collected after additional culture for 24 hours so that the cells were completely attached to the surface of the plate, and 100 ul of lysis buffer (20 mM Tris (pH 7.4), 150 mM NaCl, 1% Triton X-100, 2 mM NaF, 2 mM EDTA, 2 mM beta-glycerophosphate, 5 mM sodium orthovanadate, 1 mM PMSF, leupeptin, aproteinin) was injected to each sample, and the cells were lysed. Based on the measured total protein concentration, each sample was treated with the test compounds for 2 hours at room temperature, and then a sample buffer was added and reacted at 95° C. for 10 minutes. 25 ul was taken from the samples after the reaction was completed and dispensed into each well of an acrylamide gel, and immunoblotting was performed.

[2] = target: T1, p62 protein; assay: Activity of p62 protein and delivery of ubiquitinated substrate proteins to autophagy by immunofluorescence staining (p62, FK2) and confocal microscopy; parameters: endogenous in cells; host or cells: HeLa; details: Hela cell line, 1 uM, 6 hours
Procedure: Immunofluorescence staining was performed using p62 and FK2 as markers to determine the level of the activity of p62 protein of the compounds (Examples 1-20). In order to determine the level of p62 activity and autophagy activity by the novel p62 ligand and its isomers in the cultured cells, the Hela cell line derived from cervical cancer patients was treated with a novel p62 ligand compound (Example 1 (ATB10048), Example 2 (ATB10047), Example 3 (ATB10049), Example 5 (ATB10050), Example 4 (ATB10051), Example 7 (ATB10052), Example 6 (ATB10056), Example 8 (ATB10057), Example 9 (ATB10060), Example 10 (ATB10072), Example 11 (ATB10075), Example 12 (ATB10078), […], Example 14 (ATB10080), Example 15 (ATB10081), Example 16 (ATB10087)), Example 17 (ATB0096), Example 18 (ATB10097), Example 19 (ATB10099) and Example 20 (ATB10100)) and cultured, and then the level of puncta expression and location of FK2, which was a marker of the protein to be delivered to and degraded in the autophagy through the mediation of the intracellular ubiquitinated p62, and the puncta local co-existence with p62 were observed.
For immunofluorescence staining, a cover glass was placed on a 24-well plate, cells were dispensed and cultured for 24 hours, and then 1 uM of the novel p62 ligand according to the present invention was treated. After culturing for an additional 6 hours for the action of the compound, the medium was removed, and the cells were fixed using formaldehyde at room temperature. In order to prevent non-specific staining, the cells were reacted with a blocking solution at room temperature for 1 hour, and then the LC3 antibody diluted at a certain ratio was treated with a blocking solution and then reacted at room temperature for 1 hour. After the antibody-treated cells were washed 3 times with PBS, the goat-derived secondary antibody was diluted at a certain ratio using the blocking solution, and then reacted at room temperature for 30 minutes. After further washing with PBS three times, and DAPI staining was performed for intracellular nuclear staining. Then, the level of expression of p62 or FK2, the level of intracellular puncta formation, and the level of coexistence in the cells were observed by a confocal microscope.

[3] = target: T1, p62 protein; assay: Activity of p62 protein and delivery to autophagosome by immunofluorescence staining (p62, LC3-GFP) and confocal microscopy; parameters: endogenous in cells; host or cells: HeLa; details: Hela-LC3-GFP cell line, 5 uM, 24 hours
Procedure: Immunofluorescence staining was performed using p62 and FK2 marker to determine the level of activity of p62 protein of the compounds (Examples 1-20). In order to determine the level of p62 activity and autophagy activity by the novel p62 ligand and its isomers in cultured cells, Hela-LC3-GFP cell line derived from cervical cancer patients was treated with the novel p62 ligand compounds (Example 2 (ATB10047), Example 3 (ATB10049), Example 4 (ATB10051), Example 6 (ATB10056), Example 9 (ATB10060), Example 12 (ATB10078), Example 16 (ATB10087) and Example (ATB10097)) and cultured. Then, the level of puncta expression and location of LC3-GFP, which is an essential autophagosome marker for macroautophagy, and the puncta local co-existence of p62 were observed.
For immunofluorescence staining, a cover glass was placed on a 24-well plate, cells were dispensed and cultured for 24 hours, and then treated with 5 uM of the novel p62 ligand according to the present invention. The cells were further cultured for an additional 24 hours for the action of the compound, the medium was removed, and the cells were fixed using formaldehyde at room temperature. In order to prevent non-specific staining, the cells were reacted with a blocking solution at room temperature for 1 hour, and then the LC3 antibody diluted at a certain ratio was treated with the blocking solution and then reacted at room temperature for 1 hour. After the antibody-treated cells were washed 3 times with PBS, the goat-derived secondary antibody was diluted at a certain ratio using the blocking solution, and then reacted at room temperature for 30 minutes. The cells were washed again with PBS three times and subjected to DAPI staining for intracellular nuclear staining, and then the level of expression of p62 or LC3, intracellular puncta formation, and intracellular coexistence level were observed by a confocal microscope.

T1 sequence (Q13501 whole entry): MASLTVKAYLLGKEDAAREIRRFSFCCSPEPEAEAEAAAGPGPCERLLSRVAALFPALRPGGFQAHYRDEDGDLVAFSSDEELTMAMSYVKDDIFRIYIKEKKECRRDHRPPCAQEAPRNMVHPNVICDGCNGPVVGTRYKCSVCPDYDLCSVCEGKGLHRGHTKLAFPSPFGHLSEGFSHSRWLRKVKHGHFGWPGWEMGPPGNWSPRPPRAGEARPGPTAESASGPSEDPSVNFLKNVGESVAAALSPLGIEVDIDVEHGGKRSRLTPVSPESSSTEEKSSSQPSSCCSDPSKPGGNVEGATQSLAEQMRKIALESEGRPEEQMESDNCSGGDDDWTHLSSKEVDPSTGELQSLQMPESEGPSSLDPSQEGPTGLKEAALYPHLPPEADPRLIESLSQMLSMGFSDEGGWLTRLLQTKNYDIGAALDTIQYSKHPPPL

| SMILES | p62 protein oligomerization activity (immunoblot, FIGS. 2a to 2d) [1] | delivery of ubiquitinated proteins marked with FK2 to autophagosome mediated by p62 (FIGS. 3a to 3d) [2] | targeting of activated, oligomerized p62 protein to the autophagosome (FIG. 4) [3] |
| --- | --- | --- | --- |
| OCCNC[C@@H](O)COc1cc(OCc2ccccc2)ccn1 [Example 10, (R)-1-((4-(benzyloxy)pyridin-2-yl)oxy)-3-((2-hydroxyethyl)amino)propan-2-ol] | increasing the p62 protein oligomerization activity | show the efficacy of delivering the proteins to be delivered to and degraded by autophagosome |  |
| OCCNCc1cccc(OCc2ccccc2)n1 [Example 2, 2-(((6-(benzyloxy)pyridin-2-yl)methyl)amino)ethan-1-ol] | increasing the p62 protein oligomerization activity | show the efficacy of delivering the proteins to be delivered to and degraded by autophagosome | show the efficacy of targeting them to the autophagosome |
| NC(=O)NCc1ccc(OCc2ccccc2)cn1 [Example 6, 1-((5-(benzyloxy)pyridin-2-yl)methyl)urea] | increasing the p62 protein oligomerization activity | show the efficacy of delivering the proteins to be delivered to and degraded by autophagosome | show the efficacy of targeting them to the autophagosome |
| O=C(CO)NCc1ccc(CCc2ccccc2)o1 [Example 19, 2-hydroxy-N-((5-phenethylfuran-2-yl)methyl) acetamide] | increasing the p62 protein oligomerization activity | show the efficacy of delivering the proteins to be delivered to and degraded by autophagosome |  |
| OCCNCc1cc(OCc2ccccc2)c(OCc2ccccc2)cn1 [Example 8, 2-(((4,5-bis(benzyloxy)pyridin-2-yl)methyl)amino)ethan-1-ol] | increasing the p62 protein oligomerization activity | show the efficacy of delivering the proteins to be delivered to and degraded by autophagosome |  |
| OCCNC[C@@H](O)CNc1cccc(OCc2ccccc2)n1 [Example 15, (R)-1-((6-(benzyloxy)pyridin-2-yl)amino)-3-((2-hydroxyethyl)amino)propan-2-ol] | increasing the p62 protein oligomerization activity | show the efficacy of delivering the proteins to be delivered to and degraded by autophagosome |  |
| OCCNCc1cc(OCc2ccccc2)ccn1 [Example 5, 2-(((4-(benzyloxy)pyridin-2-yl)methyl)amino)ethan-1-ol] | increasing the p62 protein oligomerization activity | show the efficacy of delivering the proteins to be delivered to and degraded by autophagosome |  |
| OCCNCc1ccc(OCc2ccccc2)s1 [Example 17, 2-(((5-(benzyloxy)thiophen-2-yl)methyl)amino)ethan-1-ol] | increasing the p62 protein oligomerization activity | show the efficacy of delivering the proteins to be delivered to and degraded by autophagosome |  |
| O=C(O)CNCc1ccc(OCCc2ccccc2)s1 [Example 20, ((5-phenethoxythiophen-2-yl)methyl)glycine] | increasing the p62 protein oligomerization activity | show the efficacy of delivering the proteins to be delivered to and degraded by autophagosome |  |
| O=C(CO)NCc1cc(OCc2ccccc2)c(OCc2ccccc2)cn1 [Example 7, N-((4,5-bis(benzyloxy)pyridin-2-yl)methyl)-2-hydroxyacetamide] | increasing the p62 protein oligomerization activity | show the efficacy of delivering the proteins to be delivered to and degraded by autophagosome |  |
| OCCNC[C@@H](O)COc1cccc(NCc2ccccc2)n1 [Example 14, (R)-1-((6-(benzylamino)pyridin-2-yl)oxy)-3-((2-hydroxyethyl)amino)propan-2-ol] | increasing the p62 protein oligomerization activity | show the efficacy of delivering the proteins to be delivered to and degraded by autophagosome |  |
| OCCNC[C@@H](O)COc1cncc(OCc2ccccc2)c1 [Example 13, (R)-1-((5-(benzyloxy)pyridin-3-yl)oxy)-3-((2-hydroxyethyl)amino)propan-2-ol] | increasing the p62 protein oligomerization activity | show the efficacy of delivering the proteins to be delivered to and degraded by autophagosome |  |
| COc1ccc(OC[C@H](O)CNCCO)nc1OCc1ccccc1 [Example 11, (R)-1-((6-(benzyloxy)-5-methoxypyridin-2-yl)oxy)-3-((2-hydroxyethyl)amino)propan-2-ol] | increasing the p62 protein oligomerization activity | show the efficacy of delivering the proteins to be delivered to and degraded by autophagosome |  |
| O=C(CO)NCc1cccc(OCc2ccccc2)n1 [Example 1] | increasing the p62 protein oligomerization activity | show the efficacy of delivering the proteins to be delivered to and degraded by autophagosome |  |

Reference: patent US20220402873A1, “NOVEL P62 LIGAND COMPOUND, AND COMPOSITION CONTAINING SAME FOR PREVENTING, AMELIORATING, OR TREATING PROTEINOPATHIES” (AUTOTAC INC., priority 2019, published 2022)
